Laboratory results from patent US7939548B2, “Certain chemical entities, compositions, and methods” (Cytokinetics, Inc., priority 2006, dated 2011).

Biological target: T1, chicken gizzard smooth muscle myosin subfragment-1 chemically crosslinked to either cardiac or skeletal actin (Gallus gallus, UniProt P10587)
T1 construct: chicken gizzard smooth muscle myosin subfragment-1
Test: Smooth muscle myosin ATPase dose response assay (pyruvate kinase/horseradish peroxidase/pyruvate oxidase-coupled)
Assay type: biochemical
Conditions: ATPase activity of crosslinked smooth muscle actomyosin (subfragment-1); amplex red fluorescence; 4 parameter fit; read-out: IC50 Arithmetic Mean
Experimental: Screening assays were performed using a pyruvate kinase and lactate dehydrogenase-coupled ATPase assay containing the following reagents: Potassium PIPES (50 mM), MgCl2 (3 mM), KCl (100 mM), ATP (0.15 mM), DTT (1 mM), BSA (0.1 mg/ml), NADH (0.5 mM), PEP (1.5 mM), pyruvate kinase (4 U/ml), lactate dehydrogenase (8 U/ml), and antifoam (50 ppm) (concentrations expressed are final assay concentrations). The pH was adjusted to 6.80 at 22 °C by addition of potassium hydroxide. Lead optimization assays were performed with a more sensitive pyruvate kinase/horseradish peroxidase/pyruvate oxidase-coupled ATPase assay containing the following reagents: Potassium PIPES (12 mM), MgCl2 (2 mM), KCl (100 mM), ATP (0.15 mM), BSA (0.05 mg/ml), potassium phosphate (2 mM), amplex red (0.1 mM), PEP (0.1 mM), pyruvate kinase (4 U/ml), horseradish peroxidase (0.5 U/ml), pyruvate oxidase (0.5 U/ml), and antifoam (50 ppm) (concentrations expressed are final assay concentrations). The pH was adjusted to 7.00 at 22 °C by addition of potassium hydroxide.
The protein components specific to this assay are chicken gizzard smooth muscle myosin subfragment-1 that has been chemically crosslinked to either cardiac or skeletal actin using an excess of 1-Ethyl-3-[3-dimethylaminopropyl]carbodiimide hydrochloride and N-hydroxysuccinimide. The exact concentration of the crosslinked smooth muscle myosin in the assay is determined empirically, by titration to achieve a desired rate of ATP hydrolysis. The concentration varies between protein preparations due to variations in the fraction of active molecules in each preparation.
Compound dose response assays are performed by first preparing a dilution series of test compound, each with an assay mixture containing potassium PIPES, MgCl2, KCl, ATP, BSA, potassium phosphate, amplex red, PEP, crosslinked smooth muscle actomyosin (subfragment-1), antifoam, and water. The assay is started by adding an equal volume of solution containing potassium Pipes, MgCl2, KCl, BSA, potassium phosphate, pyruvate kinase, horseradish peroxidase, pyruvate oxidase, antifoam, and water. ATP hydrolysis is monitored by measuring the fluorescence of amplex red (excitation at 480 nm, emission at 615 nm). The resulting dose response curve is fit by the 4 parameter equation y=Bottom+((Top-Bottom)/(1+((IC50/X)^Hill))). The IC50 is defined as the concentration at which ATPase activity is midway between the top and bottom of the dose response curve.

Structure (SMILES) | IC50 [µM]
CNC(=O)c1ccc(C(=O)NCc2cccnc2)c(NCCc2cccc(F)c2)n1 [(2-{[2-(3-fluorophenyl)ethyl]amino}-6-(N-methylcarbamoyl)(3-pyridyl))-N-(3-pyridylmethyl)carboxamide] | 44.1
COCCCNc1ccc(C(=O)NCc2cccnc2)c(NCCc2cccc(F)c2)n1 [(2-{[2-(3-fluorophenyl)ethyl]amino}-6-[(3-methoxypropyl)amino](3-pyridyl))-N-(3-pyridylmethyl)carboxamide] | 11
N#CNC(=N)c1ccc(C(=O)NCc2cccnc2)c(NCCc2cccc(F)c2)n1 [(6-[(cyanoamino)iminomethyl]-2-{[2-(3-fluorophenyl)ethyl]amino}(3-pyridyl))-N-(3-pyridylmethyl)carboxamide] | 0.231
COC(=O)c1ccc(C(=O)NCc2cccnc2)c(NCCc2cccc(F)c2)n1 [methyl 6-{[2-(3-fluorophenyl)ethyl]amino}-5-[N-(3-pyridylmethyl)carbamoyl]pyridine-2-carboxylate] | 4.35
NCc1cccc(CNC(=O)c2cc(Br)cnc2NCCc2cccc(F)c2)n1 [N-{[6-(aminomethyl)(2-pyridyl)]methyl}(5-bromo-2-{[2-(3-fluorophenyl)ethyl]amino}(3-pyridyl))carboxamide] | 15
N=C(N)c1ccc(C(=O)NCc2cccnc2)c(NCCc2cccc(F)c2)n1 [6-{[2-(3-fluorophenyl)ethyl]amino}-5-[N-(3-pyridylmethyl)carbamoyl]pyridine-2-carboxamidine] | 6.62
C/C=C(/C)c1ccc(C(=O)NCc2cccnc2)c(NCCc2cccc(F)c2)n1 [(6-((1Z)-1-methylprop-1-enyl)-2-{[2-(3-fluorophenyl)ethyl]amino}(3-pyridyl))-N-(3-pyridylmethyl)carboxamide] | 10.5
COCCNc1ccc(C(=O)NCc2cccnc2)c(NCCc2cccc(F)c2)n1 [(2-{[2-(3-fluorophenyl)ethyl]amino}-6-[(2-methoxyethyl)amino](3-pyridyl))-N-(3-pyridylmethyl)carboxamide] | 7.62
N#Cc1cnc(NCCc2cccc(F)c2)c(C(=O)NCc2ccccn2)c1 [(5-cyano-2-{[2-(3-fluorophenyl)ethyl]amino}(3-pyridyl))-N-(2-pyridylmethyl)carboxamide] | 12.7
C/C=C/c1ccc(C(=O)NCc2cccnc2CN)c(NCCc2cccc(F)c2)n1 [(6-((1E)prop-1-enyl)-2-{[2-(3-fluorophenyl)ethyl]amino}(3-pyridyl))-N-{[2-(aminomethyl)(3-pyridyl)]methyl}carboxamide] | 0.038
CCOC(=O)c1ccc(C(=O)NCc2cccnc2)c(NCCc2cccc(F)c2)n1 [ethyl 6-{[2-(3-fluorophenyl)ethyl]amino}-5-[N-(3-pyridylmethyl)carbamoyl]pyridine-2-carboxylate] | 2.65
O=C(NCc1ccccn1)c1cc(Br)c(Cl)nc1NCCc1cccc(F)c1 [(5-bromo-6-chloro-2-{[2-(3-fluorophenyl)ethyl]amino}(3-pyridyl))-N-(2-pyridylmethyl)carboxamide] | 17.3
COC(=O)c1cc(C#N)cnc1NCCc1cccc(F)c1 [methyl 5-cyano-2-{[2-(3-fluorophenyl)ethyl]amino}pyridine-3-carboxylate] | 14.9
NC(=O)CCCCNc1ccc(C(=O)NCc2cccnc2)c(NCCc2cccc(F)c2)n1 [(6-[(4-carbamoylbutyl)amino]-2-{[2-(3-fluorophenyl)ethyl]amino}(3-pyridyl))-N-(3-pyridylmethyl)carboxamide] | 6.74
CCOC(C)c1ccc(C(=O)NCc2cccnc2)c(NCCc2cccc(F)c2)n1 (centres unmarked) [(6-(ethoxyethyl)-2-{[2-(3-fluorophenyl)ethyl]amino}(3-pyridyl))-N-(3-pyridylmethyl)carboxamide] | 73
O=C(NCc1ccccn1)c1cc(Br)cnc1NCCc1cccc(F)c1 [(5-bromo-2-{[2-(3-fluorophenyl)ethyl]amino}(3-pyridyl))-N-(2-pyridylmethyl)carboxamide] | 11.8
O=C(CCCCNc1ccc(C(=O)NCc2cccnc2)c(NCCc2cccc(F)c2)n1)NCc1cccnc1 [5-[(6-{[2-(3-fluorophenyl)ethyl]amino}-5-[N-(3-pyridylmethyl)carbamoyl](2-pyridyl))amino]-N-(3-pyridylmethyl)pentanamide] | 49.2
CC(=O)c1ccc(C(=O)NCc2cccnc2)c(NCCc2cccc(F)c2)n1 [(6-acetyl-2-{[2-(3-fluorophenyl)ethyl]amino}(3-pyridyl))-N-(3-pyridylmethyl)carboxamide] | 24.8
C/C=C/c1nc(NCCc2cccc(F)c2)c(C(=O)NCc2cccnc2CN)cc1F [(6-((1E)prop-1-enyl)-5-fluoro-2-{[2-(3-fluorophenyl)ethyl]amino}(3-pyridyl))-N-{[2-(aminomethyl)(3-pyridyl)]methyl}carboxamide] | 0.0805
Cn1cc(-c2cnc(NCCc3cccc(F)c3)c(C(=O)NCc3cccc(CN)n3)c2)cn1 [N-{[6-(aminomethyl)(2-pyridyl)]methyl}(2-{[2-(3-fluorophenyl)ethyl]amino}-5-(1-methylpyrazol-4-yl)(3-pyridyl))carboxamide] | 17.7
CNc1ccc(C(=O)NCc2cccnc2)c(NCCc2cccc(F)c2)n1 [(2-{[2-(3-fluorophenyl)ethyl]amino}-6-(methylamino)(3-pyridyl))-N-(3-pyridylmethyl)carboxamide] | 10.9
CN(CCO)c1ccc(C(=O)NCc2cccnc2)c(NCCc2cccc(F)c2)n1 [(2-{[2-(3-fluorophenyl)ethyl]amino}-6-[(2-hydroxyethyl)methylamino](3-pyridyl))-N-(3-pyridylmethyl)carboxamide] | 45.4
N#Cc1ccc(C(=O)NCc2cccnc2)c(NCCc2cccc(F)c2)n1 [(6-cyano-2-{[2-(3-fluorophenyl)ethyl]amino}(3-pyridyl))-N-(3-pyridylmethyl)carboxamide] | 65.8
C=C(OCC)c1ccc(C(=O)NCc2cccnc2)c(NCCc2cccc(F)c2)n1 [(6-(1-ethoxyvinyl)-2-{[2-(3-fluorophenyl)ethyl]amino}(3-pyridyl))-N-(3-pyridylmethyl)carboxamide] | 0.702
CN(C)/C(=N/C#N)c1ccc(C(=O)NCc2cccnc2)c(NCCc2cccc(F)c2)n1 [(6-[(1E)-1-(dimethylamino)-2-cyano-2-azavinyl]-2-{[2-(3-fluorophenyl)ethyl]amino}(3-pyridyl))-N-(3-pyridylmethyl)carboxamide] | 5.19
CC(=O)N(CCO)c1ccc(C(=O)NCc2cccnc2)c(NCCc2cccc(F)c2)n1 [N-(6-{[2-(3-fluorophenyl)ethyl]amino}-5-[N-(3-pyridylmethyl)carbamoyl](2-pyridyl))-N-(2-hydroxyethyl)acetamide] | 53.4
N#Cc1ccccc1-c1cnc(NCCc2cccc(F)c2)c(C(=O)NCc2cccc(CN)n2)c1 [N-{[6-(aminomethyl)(2-pyridyl)]methyl}(5-(2-cyanophenyl)-2-{[2-(3-fluorophenyl)ethyl]amino}(3-pyridyl))carboxamide] | 6.03
CC(=O)N(C)c1ccc(C(=O)NCc2cccnc2)c(NCCc2cccc(F)c2)n1 [N-(6-{[2-(3-fluorophenyl)ethyl]amino}-5-[N-(3-pyridylmethyl)carbamoyl](2-pyridyl))-N-methylacetamide] | 33.5
O=C(NCc1cccnc1)c1ccc(NCc2ccccn2)nc1NCCc1cccc(F)c1 [(2-{[2-(3-fluorophenyl)ethyl]amino}-6-[(2-pyridylmethyl)amino](3-pyridyl))-N-(3-pyridylmethyl)carboxamide] | 10.8
